Measured values reported in paper PMC9981942, “Pharmacokinetics and tissue distribution of Ramulus Mori (Sangzhi) alkaloids in rats and its effects on liver enzyme activity” (Frontiers in Pharmacology, 2023).
Values joined by “and” are separate entries in the source; they are usually repeats but may differ in a detail not shown here. Equal values may be shown once. Read-outs that look alike come from different tables or passages of the source.

How the values were obtained:
[1] = Tissue distribution after single oral SZ-A (20 mg/kg) in ICR mice; assay type: in vivo
Method: (§1) Twenty SD rats were randomly classified into four groups corresponding to four-time points (5 and 30 min, 4 and 12 h) (n = 20; 5 animals per time point) that received SZ-A solution (40 mg/kg) via oral administration. After the completion of dose administration, plasma and tissue samples (derived from the heart, liver, spleen, lung, kidney, aortic blood vessels, brown adipose tissue, subcutaneous adipose tissue, abdominal adipose tissue, muscle (thigh skeletal muscle), pancreas, and brain) were collected at predetermined time points. Twenty-eight ICR mice were randomly classified into four groups (n = 7 per group) corresponding to four-time points (5 and 30 min, 4 and 12 h) that received SZ-A solution (20 mg/kg) via oral administration. After the completion of dose administration, tissue samples (derived from the heart, liver, spleen, lung, kidney, aortic blood vessels, brown adipose tissue, abdominal adipose tissue, muscle (thigh skeletal muscle), pancreas, and brain) were collected at predetermined time points.
(§2) Collected tissue samples were washed with normal saline. The surface moisture was removed by blotting gently with filter paper, and the weight was recorded. After adding an appropriate amount of normal saline, these tissue samples were ground into homogenates using a cryogenic grinder (JX-CL, Shanghai Jingxin, Shanghai, China). The obtained homogenates were stored at −80°C until LC-MS/MS analysis.

[2] = design: method as in Yang et al., 2017; details: ref Yang et al., 2017, cited from earlier work
[3] = test system: major CYP450s in HLMs; experiment: Effect on activity of the major CYP450s in human liver microsomes (all isoforms together); details: final concentration SZ-A 8.899 μg/mL (equivalent to DNJ 20 μM), FA 5 μM, DAB 8 μM
[4] = Tissue distribution after single oral SZ-A (40 mg/kg) in SD rats, plasma and 12 tissues; assay type: in vivo
Method: as §1, §2
Primary pharmacokinetic parameters, including Cmax, Tmax, area under the plasma concentration-time curve (AUC), t1/2, clearance rate, and the apparent volume of distribution, were calculated using DAS 3.2.8 (Bio Guider Co., Shanghai, China).

[5] = Identification of metabolites in HLMs/RLMs and rat plasma (Q-Extractive high-resolution MS); assay type: in vitro ADME, human; details: HLMs/RLMs and rat plasma reaction system
Method: Furthermore, 5 μL of the supernatant was collected for LC-MS/MS analysis. The LC-MS/MS conditions were as follows: chromatographic column (XBridge™ Amide, 3.5 µm, 4.6 × 150 mm); mobile phase, water (0.1% ammonia) and acetonitrile, other conditions are the same as those in CYP450s inhibition study, with the following scan parameters: resolution, 70,000; AGC target, 3,000,000; maximum IT, 200 ms; and scan range, 50–600 m/z.

[6] = biological target: T1, rat CYP2C11 (Rattus norvegicus, UniProt P08683); experiment: Inhibition of CYP450s in rat liver microsomes, probe mephenytoin; details: RLMs; SZ-A 8.899 μg/mL, DNJ 20 μM, FA 5 μM, DAB 8 μM
T1 sequence (P08683 1-500): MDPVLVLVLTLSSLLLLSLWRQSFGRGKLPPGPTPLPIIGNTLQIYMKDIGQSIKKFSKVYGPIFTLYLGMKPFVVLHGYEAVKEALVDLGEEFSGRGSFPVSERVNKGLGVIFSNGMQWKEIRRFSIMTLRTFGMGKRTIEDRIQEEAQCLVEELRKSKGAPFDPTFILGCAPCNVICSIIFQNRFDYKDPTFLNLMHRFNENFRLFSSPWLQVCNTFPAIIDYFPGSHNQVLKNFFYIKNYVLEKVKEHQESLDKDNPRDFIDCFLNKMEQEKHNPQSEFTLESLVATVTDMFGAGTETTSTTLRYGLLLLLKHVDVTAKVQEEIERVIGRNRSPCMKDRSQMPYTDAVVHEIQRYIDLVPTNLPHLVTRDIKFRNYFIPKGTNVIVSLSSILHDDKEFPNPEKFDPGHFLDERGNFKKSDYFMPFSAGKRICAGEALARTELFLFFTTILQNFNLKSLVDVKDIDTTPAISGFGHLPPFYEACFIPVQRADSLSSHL

[7] = Sprague-Dawley, rat, Kidney, n=5
[8] = Sprague-Dawley, rat, Liver, n=5
[9] = Sprague-Dawley, rat, Pancreas, n=5
[10] = Sprague-Dawley, rat, Plasma, n=5
[11] = Sprague-Dawley, rat, muscle (thigh skeletal muscle), Muscle, n=5
[12] = rat, Abdominal adipose tissue, n=5
[13] = rat, Subcutaneous adipose tissue, n=5

distribution in aortic vessels compared with other tissues [1]: lower than that in other tissues
tissues with the highest concentrations [1]: kidney, followed by the liver
effect on the major CYP450s in HLMs, either inhibition or activation [3]: no significant effect
time of distribution peak in the aortic vessel [4]: ≤ 5 min
AUC(0-t) ([4]; Aortic blood vessels, n=5): 962 ± 354 ng·h/mL
CLz ([4]; Plasma, n=5): 32.5 ± 4.33 mL/min/kg
Vz ([4]; Plasma, n=5): 1.61 ± 0.24 L/kg
half-life ([4]; Sprague-Dawley, rat, Brown adipose tissue, n=5): 40.8 ± 0.6 min
AUC(0-t) ([4]; Sprague-Dawley, rat, Brown adipose tissue, n=5, read-out: AUC(0-t)): 716 ± 259 ng·h/mL
Tmax ([4]; Sprague-Dawley, rat, Brown adipose tissue, n=5, read-out: Tmax): 30 min
Cmax [4, 7]: 13300 ± 2890 ng/mL
half-life [4, 7]: 165 ± 30.6 min
AUC(0-t) ([4]; Sprague-Dawley, rat, Kidney, n=5, read-out: AUC(0-t)): 37800 ± 7170 ng·h/mL
Tmax ([4]; Sprague-Dawley, rat, Kidney, n=5, read-out: Tmax): 30 min
Cmax [4, 8]: 2070 ± 396 ng/mL
half-life [4, 8]: 229 ± 44.4 min
AUC(0-t) ([4]; Sprague-Dawley, rat, Liver, n=5, read-out: AUC(0-t)): 8120 ± 2150 ng·h/mL
Tmax ([4]; Sprague-Dawley, rat, Liver, n=5, read-out: Tmax): 30 min
Cmax ([4]; Sprague-Dawley, rat, Lung, n=5): 200 ± 22.3 ng/mL
half-life ([4]; Sprague-Dawley, rat, Lung, n=5): 31.8 ± 16.2 min
Tmax ([4]; Sprague-Dawley, rat, Lung, n=5, read-out: Tmax): 13.2 ± 14.4 min
Cmax [4, 9]: 122 ± 16.9 ng/mL
half-life [4, 9]: 40.2 ± 2.4 min
AUC(0-t) ([4]; Sprague-Dawley, rat, Pancreas, n=5, read-out: AUC(0-t)): 854 ± 90 ng·h/mL
Tmax ([4]; Sprague-Dawley, rat, Pancreas, n=5, read-out: Tmax): 114 ± 115 min
Cmax [4, 10]: 973 ± 215 ng/mL
half-life [4, 10]: 34.2 ± 1.2 min
AUC(0-t) ([4]; Sprague-Dawley, rat, Plasma, n=5, read-out: AUC(0-t)): 2360 ± 349 ng·h/mL
Tmax ([4]; Sprague-Dawley, rat, Plasma, n=5, read-out: Tmax): 30 min
Cmax [4, 11]: 188 ± 38.4 ng/mL
half-life [4, 11]: 929 ± 700 min
AUC(0-t) ([4]; Sprague-Dawley, rat, muscle (thigh skeletal muscle), Muscle, n=5, read-out: AUC(0-t)): 1550 ± 212 ng·h/mL
Tmax ([4]; Sprague-Dawley, rat, muscle (thigh skeletal muscle), Muscle, n=5, read-out: Tmax): 67.2 ± 97.2 min
Cmax [4, 12]: 212 ± 58.2 ng/mL
half-life [4, 12]: 43.8 ± 3.6 min
AUC(0-t) ([4]; rat, Abdominal adipose tissue, n=5, read-out: AUC(0-t)): 460 ± 146 ng·h/mL
Tmax ([4]; rat, Abdominal adipose tissue, n=5, read-out: Tmax): 25.2 ± 11.4 min
Cmax ([4]; rat, Aortic blood vessels, n=5): 756 ± 536 ng/mL
half-life ([4]; rat, Aortic blood vessels, n=5): 27.6 ± 14.4 min
Tmax ([4]; rat, Aortic blood vessels, n=5, read-out: Tmax): 4.8 min
Cmax ([4]; rat, Brown adipose tissue, n=5): 269 ± 82.8 ng/mL
Cmax ([4]; rat, Heart, n=5): 114 ± 24.2 ng/mL
half-life ([4]; rat, Heart, n=5): 42.6 ± 0.6 min
AUC(0-t) ([4]; rat, Heart, n=5, read-out: AUC(0-t)): 469 ± 213 ng·h/mL
Tmax ([4]; rat, Heart, n=5, read-out: Tmax): 72 ± 94.2 min
AUC(0-t) ([4]; rat, Lung, n=5, read-out: AUC(0-t)): 333 ± 108 ng·h/mL
Cmax ([4]; rat, Spleen, n=5): 144 ± 39.9 ng/mL
half-life ([4]; rat, Spleen, n=5): 45 ± 4.2 min
AUC(0-t) ([4]; rat, Spleen, n=5, read-out: AUC(0-t)): 294 ± 87 ng·h/mL
Tmax ([4]; rat, Spleen, n=5, read-out: Tmax): 30 min
Cmax [4, 13]: 112 ± 41.5 ng/mL
half-life [4, 13]: 44.4 ± 1.8 min
AUC(0-t) ([4]; rat, Subcutaneous adipose tissue, n=5, read-out: AUC(0-t)): 232 ± 75 ng·h/mL
Tmax ([4]; rat, Subcutaneous adipose tissue, n=5, read-out: Tmax): 30 min
Tmax ([4]; rat, other tissues (not named), tissues not named separately for that alkaloid, read-out: time of peak concentration in other tissues (converted)): 30 min
accumulation in tissues ([4]; up to 12 h): no long-term accumulation
effect on rat CYP2C11 [6]: mild activation effect
SMILES: OC[C@H]1NC[C@@H](O)[C@@H]1O [DAB, 1,4-dideoxy-1,4-imino-D-arabinitol]
form excreted ([2]; material conservation within 24 h after oral administration of SZ-A): mainly excreted in their original forms
oral absolute bioavailability ([2]; rats, after oral administration of SZ-A): 78.23% and > 70%
pharmacokinetic profile versus dose ([2]; rats, oral SZ-A 20–500 mg/kg): non-linear pharmacokinetics
tissues with the highest concentrations [4]: kidney, followed by the liver, aortic vessels, and brown adipose tissue
metabolites found [5]: no detectable phase I and phase II metabolites
